Reference: EPA's ToxValDB 9.5 (doi:10.2903/j.efsa.2010.1445)

Key:
[1] = chronic/long-term; development
Anatidae = conditions: for LD50: oral, mortality
Apis mellifera = conditions: acute; duration: 48 hours; dermal; mortality
Coturnix coturnix = conditions: for LD50: acute, oral, mortality
Daphnia magna = conditions: chronic/long-term; duration: 21 days
Lepomis macrochirus = conditions: acute; duration: 96 hours; mortality
Oncorhynchus mykiss = conditions: acute; duration: 96 hours; mortality
Oryctolagus sp. = conditions: developmental; development
Pimephales promelas = conditions: chronic/long-term; duration: 33 days
Rattus norvegicus = conditions: acute; oral; mortality
Tagia sp. = conditions: acute; mortality
Typhlodromus pyri = conditions: not reported; mortality

N#CCNC(=O)c1cnccc1C(F)(F)F [Flonicamid]
NOEL [1]: 25 mg/kg-day | LD50 (Anatidae; acute, unspecified, F): 1590 mg/kg | LD50 (Anatidae; acute, unspecified, M): 2620 mg/kg | NOEL (Anatidae; reproductive): 59 mg/kg-day | LD50 (Anatidae; short-term, feed): > 302 mg/kg-day | LD50 (Apis mellifera): > 51.1 µg/piece | LC50 (Bibionidae; acute, duration: 48 hours, mortality): > 200 µg/mL | NOEC (Bibionidae; chronic/long-term, duration: 28 days): 25 mg/L | LD50 (Coturnix coturnix; M/F): > 2000 mg/kg | LD50 (Coturnix coturnix; diet): > 411 mg/kg-day | NOEL (Coturnix coturnix; reproduction developmental): 90 mg/kg-day | NOEC (Daphnia magna): 3.1 mg/L | LC50 (Lepomis macrochirus): > 100 µg/mL | LC50 (Oncorhynchus mykiss): > 100 µg/mL | NOAEL (Oryctolagus sp.): 2.5 mg/kg-day | NOEC (Pimephales promelas): 10 mg/L | LD50 (Rattus norvegicus): 884 mg/kg | LC50 (Tagia sp.): > 1000 mg/kg | LEL (Typhlodromus pyri): 80 g/ha
